One assay has as its target human orexin 2 receptor (Homo sapiens (Human), UniProt O43614). In words: Human orexin 2 receptor radioligand binding ([3H]-EMPA). To be noted: averages of 2-20 runs, read-out: hOX2 Ki. The procedure, abridged:
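Competition binding using homogenized HEK293 cells stably expressing human orexin 2 receptor, [3H]-EMPA at 2 nM final and ≤0.1% DMSO; nonspecific binding set with 10 μM almorexant. Filter-bound radioactivity counted by scintillation; one-site competition IC50 converted to Ki using pre-determined Kd, compounds run in triplicate.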

The target in the next assay is rat orexin 1 receptor (Rattus norvegicus, UniProt P56718). In words: Rat orexin 1 receptor radioligand binding. To be noted: rat orexin 1 receptor radioligand binding; averages of 2-20 runs; read-out: rOX1 Ki. The procedure, abridged: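 Cell-suspension competition binding used 4 nM final tritiated thiazolyl-pyrrolidinyl-methanone radioligand in PBS, ≤0.1% DMSO, with 10 µM almorexant defining nonspecific binding. Filter-bound radioactivity was counted in triplicate. IC50 came from one-site competition fits and was converted to Ki using the predetermined Kd.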

In another assay the target is human orexin 1 receptor (Homo sapiens, UniProt O43613). In words: Human orexin 1 receptor radioligand binding. To be noted: human orexin 1 receptor radioligand binding; averages of 2-20 runs; read-out: hOX1 Ki. On the procedure:
The in vitro affinity of the compounds of the invention for the rat/human orexin 1 and human orexin 2 receptors was determined by competitive radioligand binding using [^3H](1-(5-(2-fluoro-phenyl)-2-methyl-thiazol-4-yl)-1-((S)-2-(5-phenyl-(1,3,4)oxadiazol-2-ylmethyl)-pyrrolidin-1-yl)-methanone) (Langmead et al., 2004) and [^3H]EMPA (n-ethyl-2[96-methoxypyridin-3-yl)-(toluene-2-sulfonyl)-amino]-N-pyridin-3-ylmethyl acetamide), respectively (Langmead et al., 2004, British Journal of Pharmacology 141:340-346; Malherbe et al., 2004, British Journal of Pharmacology 156:1326-41).
Data are analyzed using pc-Sandy macro and graphed on Graphpad Prism 5. For analysis, each concentration point is averaged from triplicate values and the averaged values are plotted on Graphpad Prism. The IC50 was determined by applying the following equation (GraphPad Prism 5.0, SanDiego) for one site competition where X=log (concentration) and Y=specific binding. Top denotes the total [^3H]-(1-(5-(2-fluoro-phenyl)-2-methyl-thiazol-4-yl)-1-((S)-2-(5-phenyl-(1,3,4)oxadiazol-2-ylmethyl)-pyrrolidin-1-yl)-methanone) binding, bottom denotes the nonspecific [^3H]-(1-(5-(2-fluoro-phenyl)-2-methyl-thiazol-4-yl)-1-((S)-2-(5-phenyl-(1,3,4)oxadiazol-2-ylmethyl)-pyrrolidin-1-yl)-methanone) binding. Graphpad Prism calculates Ki value from IC50 and the pre-determined Kd values for [^3H]-(1-(5-(2-fluoro-phenyl)-2-methyl-thiazol-4-yl)-1-((S)-2-(5-phenyl-(1,3,4)oxadiazol-2-ylmethyl)-pyrrolidin-1-yl)-methanone) and [3H]-EMPA. The Ki for each compound is then uploaded into 3DX. Each run comprises individual compounds in triplicate.
Rat and Human Orexin 1 Receptor Radioligand Binding Studies
Human Embryonic Kidney 293 cells (HEK293) stably expressing rat orexin 1 receptor (Genebank accession number NM_001525) or Chinese ovary cells (CHO) stably expressing human orexin 1 receptor (Genebank accession number NM_001526) were grown to confluency in DMEM (Hyclone, cat #SH30022), 10% FBS, 1×Pen/Strep, 1× sodium pyruvate, 10 mM HEPES, 600 μg/mL G418 and DMEM/F12 (Gibco, Cat #11039), 10% FBS, 1×Pen/Strep, 600 μg/mL G418 media, respectively on 150 cm^2 tissue culture plates, washed with 5 mM EDTA in PBS (HyClone Dulbecco's Phosphate Buffered Saline 1× with Calcium and Magnesium, Cat #SH30264.01, hereafter referred to simply as PBS) and scraped into 50 ml tubes. After centrifugation (2K×G, 5 min at 4° C.), the supernatant was aspirated and the pellets frozen and stored at −80° C. Cells were resuspended in PBS in the presence of 1 tablet of protease inhibitor cocktail (Roche, Cat. #11836145001) per 50 mL. Each cell pellet from a 15 cm plate was resuspended in 10 mL, stored on ice, and homogenized for 45 sec prior to addition to the reactions. Competition binding experiments in 96 well polypropylene plates were performed using [^3H]-(1-(5-(2-fluoro-phenyl)-2-methyl-thiazol-4-yl)-1-((S)-2-(5-phenyl-(1,3,4)oxadiazol-2-ylmethyl)-pyrrolidin-1-yl)-methanone) (Moraveck Corporation, specific activity=35.3 Ci/mmol), diluted to a 10 nM concentration in PBS (4 nM final). […] The final concentration of DMSO in the reactions is equal to or less than 0.1%. Total and nonspecific binding was determined in the absence and presence of 10 μM almorexant. The total volume of each reaction is 200 μL (20 μL of diluted compounds, 80 μL of [^3H]-(1-(5-(2-fluoro-phenyl)-2-methyl-thiazol-4-yl)-1-((S)-2-(5-phenyl-(1,3,4)oxadiazol-2-ylmethyl)-pyrrolidin-1-yl)-methanone) diluted in PBS and 100 μL of the cell suspension). Reactions were run for 60 min at room temperature and terminated by filtration through GF/C filter plates (PerkinElmer, Cat. #6005174) presoaked in 0.3% polyethylenimine using the cell harvester (PerkinElmer Filtermate). The plates were washed 3 times by aspirating 30 ml PBS through the plates. Plates were dried in 55° C. oven for 60 min, scintillation fluid was added, and the radioactivity was counted on a Topcount (Packard).

Chain of human orexin 2 receptor (O43614 whole entry): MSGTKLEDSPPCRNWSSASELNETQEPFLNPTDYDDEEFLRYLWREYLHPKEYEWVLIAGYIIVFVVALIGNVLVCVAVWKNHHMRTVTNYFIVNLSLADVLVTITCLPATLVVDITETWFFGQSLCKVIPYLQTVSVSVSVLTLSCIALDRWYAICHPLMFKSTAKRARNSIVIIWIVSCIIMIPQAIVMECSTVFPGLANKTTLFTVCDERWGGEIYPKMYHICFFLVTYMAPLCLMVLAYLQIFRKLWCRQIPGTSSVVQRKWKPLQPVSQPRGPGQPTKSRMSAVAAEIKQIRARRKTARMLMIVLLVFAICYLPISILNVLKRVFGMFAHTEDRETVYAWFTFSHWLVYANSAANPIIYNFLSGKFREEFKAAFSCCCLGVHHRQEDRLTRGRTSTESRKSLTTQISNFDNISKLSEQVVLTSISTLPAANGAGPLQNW

As a reminder, the Ki is a measure of affinity in units of concentration, obtained from inhibition or displacement. Turning to `CCOc1ccc(C)nc1C(=O)N1CCC[C@@H](Nc2ncc(C(F)(F)F)cn2)[C@@H]1C` (relative stereo) [Example 199, (3-ethoxy-6-methylpyridin-2-yl)((2S*,3R*)-2-methyl-3-((5-(trifluoromethyl)pyrimidin-2-yl)amino)piperidin-1-yl)methanone], the Ki on human orexin 2 receptor stood at 2400 nM; on rat orexin 1 receptor, 154 nM; on human orexin 1 receptor it was 206 nM.
On to `C[C@H]1[C@H](Nc2nc3ccccc3o2)CCCN1C(=O)c1cccc(F)c1-c1ncccn1` (relative stereo) [Example 204, ((2S*,3R*)-3-(benzo[d]oxazol-2-ylamino)-2-methylpiperidin-1-yl)(3-fluoro-2-(pyrimidin-2-yl)phenyl)methanone], for which the Ki is 292 nM at human orexin 2 receptor, 14 nM at rat orexin 1 receptor and 16 nM at human orexin 1 receptor.
For the compound `C[C@H]1[C@H](Nc2nc3ccccc3o2)CCCN1C(=O)c1ccc(F)cc1-c1ncccn1` (relative stereo) [Example 206, ((2S*,3R*)-3-(benzo[d]oxazol-2-ylamino)-2-methylpiperidin-1-yl)(4-fluoro-2-(pyrimidin-2-yl)phenyl)methanone], the Ki on human orexin 2 receptor was found to be 564 nM; at rat orexin 1 receptor, 16 nM; at human orexin 1 receptor, 16 nM.
For the compound `C[C@H]1[C@H](Nc2cnc(C(F)(F)F)cn2)CCCN1C(=O)c1ccc(F)cc1-c1ncco1` (relative stereo) [Example 208, (4-fluoro-2-(oxazol-2-yl)phenyl)((2S*,3R*)-2-methyl-3-((5-(trifluoromethyl)pyrazin-2-yl)amino)piperidin-1-yl)methanone], the inhibition constant (Ki) amounted to 1100 nM on human orexin 2 receptor, 67 nM at rat orexin 1 receptor and 34 nM at human orexin 1 receptor.
Taken in the same sequence, the figures for `C[C@H]1[C@H](Nc2cnc(C(F)(F)F)cn2)CCCN1C(=O)c1ccc(F)cc1-c1ncccn1` (relative stereo) [Example 209, (4-fluoro-2-(pyrimidin-2-yl)phenyl)((2S*,3R*)-2-methyl-3-((5-(trifluoromethyl)pyrazin-2-yl)amino)piperidin-1-yl)methanone] were 944 nM, 16 nM and 25 nM.
As to `C[C@H]1[C@H](Nc2ccc(C(F)(F)F)cn2)CCCN1C(=O)c1ncccc1-c1ncccn1` (relative stereo) [Example 265, ((2S*,3R*)-2-methyl-3-((5-(trifluoromethyl)pyridin-2-yl)amino)piperidin-1-yl)(3-(pyrimidin-2-yl)pyridin-2-yl)methanone], the Ki at human orexin 2 receptor turned out to be 293 nM; on rat orexin 1 receptor, 16 nM; on human orexin 1 receptor, 24 nM.
As for `Cc1cnc(C(=O)N2CCC[C@@H](Nc3ccc(C(F)(F)F)cn3)[C@@H]2C)c(-n2nccn2)c1` [Example 26, ((2S,3R)-2-methyl-3-((5-(trifluoromethyl)pyridin-2-yl)amino)piperidin-1-yl)(5-methyl-3-(2H-1,2,3-triazol-2-yl)pyridin-2-yl)methanone], the Ki at human orexin 2 receptor was determined as 2370 nM; at rat orexin 1 receptor, 12 nM; on human orexin 1 receptor, 16 nM.
For `Cc1cnc(C(=O)N2CCC[C@@H](Nc3ccc(Cl)cn3)[C@@H]2C)c(-c2ncco2)c1` [Example 77, ((2S,3R)-3-((5-chloropyridin-2-yl)amino)-2-methylpiperidin-1-yl)(5-methyl-3-(oxazol-2-yl)pyridin-2-yl)methanone] the same measures were 4230 nM, 41 nM and 60 nM.
`COc1ccc(-n2nccn2)c(C(=O)N2CCC[C@@H](Nc3ncc(C(F)(F)F)cn3)[C@@H]2C)c1` [Example 89, (5-methoxy-2-(2H-1,2,3-triazol-2-yl)phenyl)((2S,3R)-2-methyl-3-((5-(trifluoromethyl)pyrimidin-2-yl)amino)piperidin-1-yl)methanone]: the values for the Ki at human orexin 2 receptor, on rat orexin 1 receptor and on human orexin 1 receptor were 422 nM, 11 nM and 9 nM, respectively.
For `COc1ccc(C(=O)N2CCC[C@@H](Nc3ccc(C(F)(F)F)cn3)[C@@H]2C)c(-n2nccn2)c1` [Example 97, (4-methoxy-2-(2H-1,2,3-triazol-2-yl)phenyl)((2S,3R)-2-methyl-3-((5-(trifluoromethyl)pyridin-2-yl)amino)piperidin-1-yl)methanone] the same measures were 4900 nM, 33 nM and 34 nM.
For the compound `Cc1cnc(C(=O)N2CCC[C@@H](Oc3cnc(C(F)(F)F)cn3)[C@@H]2C)c(-n2nccn2)c1` [Example 105, ((2S,3R)-2-methyl-3-((5-(trifluoromethyl)pyrazin-2-yl)oxy)piperidin-1-yl)(5-methyl-3-(2H-1,2,3-triazol-2-yl)pyridin-2-yl)methanone], the figures for the Ki on human orexin 2 receptor, at rat orexin 1 receptor and at human orexin 1 receptor were > 10000 nM, 192 nM and 269 nM, respectively.
On to `C[C@H]1[C@H](Oc2cnc(C(F)(F)F)cn2)CCCN1C(=O)c1ccccc1-n1nccn1` [Example 106, (2-(2H-1,2,3-triazol-2-yl)phenyl)((2S,3R)-2-methyl-3-((5-(trifluoromethyl)pyrazin-2-yl)oxy)piperidin-1-yl)methanone], for which the Ki amounted to 912 nM on human orexin 2 receptor, 44 nM on rat orexin 1 receptor and 45 nM at human orexin 1 receptor.
Taken in the same sequence, the figures for `Cc1ccc(-n2nccn2)c(C(=O)N2CCC[C@@H](Oc3cnc(C(F)(F)F)cn3)[C@@H]2C)n1` [Example 107, ((2S,3R)-2-methyl-3-((5-(trifluoromethyl)pyrazin-2-yl)oxy)piperidin-1-yl)(6-methyl-3-(2H-1,2,3-triazol-2-yl)pyridin-2-yl)methanone] were 2300 nM, 34 nM and 38 nM.
Taken in the same sequence, the figures for `C[C@H]1[C@H](Oc2ccc(C(F)(F)F)cn2)CCCN1C(=O)c1ccccc1-n1nccn1` [Example 110, (2-(2H-1,2,3-triazol-2-yl)phenyl)((2S,3R)-2-methyl-3-((5-(trifluoromethyl)pyridin-2-yl)oxy)piperidin-1-yl)methanone] were 246 nM, 12 nM and 11 nM.
For `Cc1cnc(C(=O)N2CCC[C@@H](Oc3ccc(C(F)(F)F)cn3)[C@@H]2C)c(-n2nccn2)c1` [Example 111, ((2S,3R)-2-methyl-3-((5-(trifluoromethyl)pyridin-2-yl)oxy)piperidin-1-yl)(5-methyl-3-(2H-1,2,3-triazol-2-yl)pyridin-2-yl)methanone] the same measures were 5100 nM, 22 nM and 31 nM.
